In patent US11384381B2, “Reaction accelerating agent” (Kikkoman Corporation, priority 2016, dated 2022):

Tests used:
Type in all cases: biochemical
[1] = tested on: sarcosine oxidase (SOD-TE); test: Sarcosine detection reaction completed with excess sarcosine oxidase (Example 10); details: 0.04% (w/v) compound, 123 U/ml SOD-TE (excess), 32 μM sarcosine, pH 8.0, 37° C.; for ΔA9 min: change in A694-A751 9 minutes after mixing; for ΔA10 min: change in A694-A751 10 minutes after mixing, defined as ΔA100%
Method: In this Example, the amount of change in absorbance is determined when the detection reaction of the substrate sarcosine (N-methylglycine) was completed using an excess amount of sarcosine oxidase (SOD-TE), which is an oxidase.
A reagent for sarcosine measurement having the following composition was prepared, and the measurement of sarcosine using sarcosine oxidase was carried out using Bio Majesty JCA-BM 1650 (manufactured by JEOL Ltd.).
32 μM sarcosine (manufactured by Wako Pure Chemical Industries, Ltd.)
30 mM MOPS-NaOH buffer solution, pH 8.0
0.2% (v/v) NP-10 (manufactured by HELM)
(§1) 10 U/ml peroxidase PEO-301 (Toyobo Co., Ltd.)
(§2) 0.023 mM 10-(carboxymethylaminocarbonyl)-3,7-bis(dimethylamino)phenothiazine sodium (DA-67, manufactured by Wako Pure Chemical Industries, Ltd.)
(§3) 0.04% (w/v) of the compound of Comparative Example 2, any one compound of the present invention, or compound-free (Comparative Example 1) ion-exchange water as shown in Table 1
10 mM MOPS-NaOH buffer solution, pH 8.0
123 U/ml SOD-TE (manufactured by Kikkoman Biochemifa Company)
8 μl of the sample was added to 96 μl of the first reagent-D, and the mixture was incubated at 37° C. for 5 minutes. Then, 24 μl of the second reagent-G was added thereto, and the quantitative reaction of hydrogen peroxide resulting from the oxidation of sarcosine was allowed to progress at 37° C. for 5 minutes. The absorbance (A694 and A751) of the reaction solution for light at wavelengths of 694 nm and 751 nm was measured over time for 10 minutes after the mixing of the sample with the first reagent-D to determine the value of subtraction of A751 from A694, i.e., the value A694/751. Subsequently, ΔA was calculated by subtracting, from A694/751, the value of (104/128) times […] 4.8 minutes after the mixing of the sample with the first reagent-D. Incidentally, 4.8 minutes after the mixing of the sample with the first reagent-D represents the time immediately before the addition of the second reagent-G. ΔA 9 minutes and 10 minutes after the mixing of the diluted sample with the first reagent-D (ΔA9min and ΔA10min) are shown in Table 7.
(§4) In other words, it can be recognized that the quantitative reaction of sarcosine, i.e., the quantitative reaction of hydrogen peroxide resulting from the oxidation of sarcosine, was completed in 10 minutes after the mixing of the diluted sample with the first reagent-D. Accordingly, in Examples 10 and 11, ΔA10min in each Comparative Example or the present invention was defined as ΔA when 100% of the quantitative reaction of sarcosine progressed under each condition (ΔA100%).

[2] = tested on: cholesterol oxidase (CHO-CE); test: Acceleration of cholesterol detection reaction with small amount of cholesterol oxidase (Example 13); details: 0.04% (w/v) compound, 2.31 U/ml CHO-CE; for effect of accelerating cholesterol detection reaction: versus not added; for Degree of progression of reaction (%) after 7.5 minutes / Degree of progression of reaction (%) after 10 minutes: cholesterol detection reaction, ΔA/ΔA100%; for Degree of progression of reaction (%) after 7.5 minutes: 2.5 minutes after addition of second reagent, not added: 65; for Degree of progression of reaction (%) after 10 minutes: 5 minutes after addition of second reagent, not added: 88
Method: Next, in this Example, the degree of acceleration of cholesterol detection reaction by the compound of the present invention was determined using a small amount of cholesterol oxidase.
A reagent for cholesterol measurement having the following composition was prepared, and the measurement of cholesterol was carried out using Bio Majesty JCA-BM […] (manufactured by JEOL Ltd.).
(§5) 32 μM cholesterol (manufactured by Wako Pure Chemical Industries, Ltd.)
(§6) 5.0% (v/v) Triton X-100 (manufactured by Wako Pure Chemical Industries, Ltd.)
(§7) 4.0% (w/v) sodium cholate (manufactured by Wako Pure Chemical Industries, Ltd.)
(§8) 30 mM MOPS-NaOH buffer solution, pH 7.0
as §1, §2, §3
(§9) 10 mM MOPS-NaOH buffer solution, pH 7.0
2.31 U/ml CHO-CE (manufactured by Kikkoman Biochemifa Company)
(§10) 8 μl of the sample was added to 96 μl of the first reagent-E, and the mixture was incubated at 37° C. for 5 minutes. Then, 24 μl of the second reagent-J was added thereto, and the quantitative reaction of hydrogen peroxide resulting from the oxidation of cholesterol was allowed to progress at 37° C. for 5 minutes. The absorbance (A694 and A751) of the reaction solution for light at wavelengths of 694 nm and 751 nm was measured over time for 10 minutes after the mixing of the sample with the first reagent-E to determine the value of subtraction of A751 from A694, i.e., the value A694/751. Subsequently, ΔA was calculated by subtracting, from A694/751, the value of (104/128) times A694/751 4.8 minutes after the mixing of the sample with the first reagent-E. Incidentally, 5 minutes after the mixing of the sample with the first reagent-E represents the time immediately before the addition of the second reagent-J.
Next, ΔA calculated in this Example was divided by ΔA100% defined in Example 12 to calculate the degree of progression of cholesterol detection reaction. The degree of progression of cholesterol detection reaction 7.5 and 10 minutes after the mixing of the sample with the first reagent-E (in other words, 2.5 and 5 minutes after the addition of the second reagent-J) is shown in Table 10.

[3] = tested on: cholesterol oxidase (CHO-CE); test: Cholesterol detection reaction completed with excess cholesterol oxidase (Example 12); details: 0.04% (w/v) compound, 11.6 U/ml CHO-CE (excess), 32 μM cholesterol, pH 7.0, 37° C.; for ΔA9 min: change in A694-A751 9 minutes after mixing; for ΔA10 min: change in A694-A751 10 minutes after mixing, defined as ΔA100%
Method: In this Example the amount of change in absorbance is determined when the detection reaction for the substrate cholesterol was completed using an excess amount of cholesterol oxidase (CHO-CE), which is an oxidase.
A reagent for cholesterol measurement having the following composition was prepared, and the measurement of cholesterol using cholesterol oxidase was carried out using Bio Majesty JCA-BM 1650 (manufactured by JEOL Ltd.).
as §5, §6, §7, §8, §1, §2, §3, §9
11.6 U/ml CHO-CE (manufactured by Kikkoman Biochemifa Company)
as §10, with “second reagent-I” for “second reagent-J”, “Incidentally, 4.8” for “Incidentally, 5”, “second reagent-I. ΔA 9 minutes and 10 minutes after the mixing of the diluted sample with the first reagent-E (ΔA9min and ΔA10min) are shown in Table 9.” for “second reagent-J.”
as §4, with “of cholesterol,” for “of sarcosine,”, “first reagent-E.” for “first reagent-D.”, “Examples 12” for “Examples 10”, “and 13,” for “and 11,”, “of cholesterol” for “of sarcosine”

Row | Molecule | ΔA9 min [1] | ΔA10 min [1] | effect of accelerating cholesterol detection reaction [2] | Degree of progression of reaction (%) after 7.5 minutes [2] [%] | Degree of progression of reaction (%) after 10 minutes [2] [%] | ΔA9 min [3] | ΔA10 min [3]
1 | COc1cc(N=Nc2ccc(N)cc2)c(C)cc1N [Disperse Diazo Black 3BF] | 0.156 | 0.156 | effect of accelerating cholesterol detection reaction | 66 | 97 | 0.028 | 0.032
2 | O=C([O-])c1cc(N=Nc2cccc([N+](=O)[O-])c2)ccc1O.[Na+] [Alizarin Yellow GG] | 0.197 | 0.197 | effect of accelerating cholesterol detection reaction | 73 | 93 | 0.039 | 0.039
3 | O=S(=O)([O-])c1cccc(N=Nc2ccc(Nc3ccccc3)cc2)c1.[Na+] [Acid Yellow 36] |  |  | effect of accelerating cholesterol detection reaction | 73 | 92 | 0.033 | 0.033
4 | COc1cc(N=Nc2cccc(S(=O)(=O)[O-])c2)ccc1NC(=O)Nc1ccc(N=Nc2ccc(O)c(C(=O)[O-])c2)cc1.[Na+].[Na+] [Direct Yellow 44] | 0.315 | 0.315 |  |  |  |  | 
5 | Cc1nn(-c2cc(S(=O)(=O)[O-])ccc2Cl)c(O)c1N=Nc1ccccc1.[Na+] [Acid Yellow 34] |  |  | effect of accelerating cholesterol detection reaction | 72 | 92 | 0.033 | 0.033
6 | Xylene Fast Yellow 2G | 0.158 | 0.158 |  |  |  |  | 
7 | O=C([O-])c1cc(N=Nc2ccc([N+](=O)[O-])cc2)ccc1O.[Na+] [Mordant Orange 1] | 0.327 | 0.328 | effect of accelerating cholesterol detection reaction | 74 | 94 | 0.041 | 0.041
8 | O=C(O)c1cc(N=Nc2ccc3cc(S(=O)(=O)O)ccc3c2)ccc1O.[Na] [Chrome Yellow] | 0.186 | 0.186 | effect of accelerating cholesterol detection reaction | 67 | 91 | 0.071 | 0.072
9 | Acid Red 151 | 0.212 | 0.212 | effect of accelerating cholesterol detection reaction | 74 | 94 | 0.036 | 0.036
